Reference: patent US4442093A, “Method for administering 24,25-dihydroxycholecalciferol to persons suffering from hypercalcemia” (Kureha Kagaku Kogyo Kabushiki Kaisha, priority 1981, dated 1984)

Experiments:
[1] = test system: inorganic phosphate in serum; assay: Serum inorganic phosphate in rats given puromycin aminonucleoside (Example 19); format: in vivo, male Wistar rats; details: hyperphosphatemia due to puromycin-amino-nucleoside
Method: Puromycin aminonucleoside (hereinafter abbreviated as AN) was dissolved in physiological saline solution to be the concentration of 15 mg of AN/ml.
The thus prepared solution was subcutaneously administered to […] in 9th to 10th week after birth divided equally into 3 groups once a day for continuous 5 days at a daily dose rate of 15 mg/kg body weight, and the administration of AN was suspended for the next 2 weeks. This cycle of 5 days of administration followed by 2 weeks of suspension of administration was repeated 5 times, and from the commencement of the 4th cycle, drinking water was substituted by one of the compositions for oral administration prepared in Example 18, namely, Composition A or Composition B to be taken ad lib by each one of the three groups of the rats for 38 days therefrom. […] As control, a group consisting of 8 male Wistar rats was used without giving AN and with the oral administration of aqueous 0.1% by weight isopropyl alcohol solution taken ad lib during the same 38 days as above. As comparative example, another group consisting of 8 male Wistar rats was used with the same administration of AN as in the test groups and with the oral administration of aqueous 0.1% by weight isopropyl alcohol taken ad lib as in the control group.

calcium level in serum [2] = assay: Serum calcium in patient with hyperparathyroidism accompanied by hypercalcemia (Example 6); format: in vivo, human; details: person seventeen, 10 µg/day oral
Source text: The thus prepared capsule composition was tentatively applied to the following two cases of human hyperparathyroidism accompanied by hypercalcemia:
To patient seventeen suffering from hyperparathyroidism accompanied by hypercalcemia, one of the capsule composition prepared as above containing 1 microgram of the active ingredient in one capsule was orally administered at a daily dose of 10 micrograms of 24R,25-(OH)2 -D3 for continuous 4 days.

thymus = assay: Weight ratio of thymus to body and number of thymocytes in rats given puromycin aminonucleoside (Example 11); format: in vivo, male JCL-Wistar rats; details: 100 µg/kg/day oral 12 days with puromycin aminonucleoside 15 mg/kg s.c.
Method: Thirty-two male JCL-Wistar rats in tenth week after birth were used in the present test while keeping them in a room at 21±1° C. and 60±5% RH with solid diet (CE 2) and water taken ad lib.
They were divided equally into 4 groups (one group consisting of 8 animals), their treatments in the test being as follows:
subcutaneous injection of puromycin aminonucleoside as in the second group and oral administration of 24R,25-(OH)2 -D3 dissolved in Panacete 810 once a day at a daily dose rate of 100 micrograms/kg for continuous 12 days.
subcutaneous injection of puromycin aminonucleoside as in the second group and oral administration of 24S,25-(OH)2 -D3 dissolved in Panacete 810 once a day at a daily dose rate of 100 micrograms/kg for continuous 12 days.
After uniformly loosing the thymus in phosphate buffer solution with a forcets and fully pipetting, the mixture was filtered through a stainless steel mesh (Tylar standard #200) and the filtrate containing the thymic cells was stained with Turk's solution. The thus stained specimen was subjected to counting under a microscope.

calcium level in serum [3] = assay: Prevention of hypercalcemia in rats administered with 1-α-(OH)-D3 (Example 4); format: in vivo, male Wistar rats; details: 100 µg/kg oral together with 1-α-(OH)-D3 10 µg/kg i.p.
Source text: In the present example, it is shown that 24R,25-(OH)2 -D3 has a function of preventing the occurrence of hypercalcemia on rats administered with 1-α-hydroxycholecalciferol (hereinafter referred to as 1-α-(OH)-D3).
Six subgroups of male Wistar rats of 130±30 g of body weight were subjected to the test while dividing the rats into 3 groups, each group consisting of 2 subgroups and each subgroup consisting of 5 animals. To the rats of the first group, after fasting for a night, an ethanolic solution of 1-α-(OH)-D3 was intraperitoneally administered at a dose rate of 10 micrograms of 1-α-(OH)-D3 /kg body weight. To the rats of the second group, a solution of 24R,25-(OH)2 -D3 in the triglyceride ester used in Example 1 was orally administered at a dose rate of 100 micrograms/kg body weight simultaneously with the same administration of 1-α-(OH)-D3 as in the rats of the first group.
The third group of the rats was used for control only with the oral administration of the triglyceride ester used in Example 1.

## C=C1CC[C@H](O)C/C1=C/C=C1\CCC[C@]2(C)[C@@H]([C@H](C)CC[C@@H](O)C(C)(C)O)CC[C@@H]12 [24R,25-(OH)2 -D3]
[1]
  inorganic phosphate level in serum: significant reduction of the inorganic phosphate level
Calcium level in serum [2]
  calcium level in serum after administration for 4 days: 10.8 mg/dL
thymus
  Number of thymocytes: (32 ± 5.5) × 10^7
  Weight ratio: thymus/body: 0.00101 ± 0.00011
Calcium level in serum [3]; after 10 hours
  Calcium level in serum: 11.5 ± 0.5 mg/dL
Calcium level in serum [3]; after 18 hours
  Calcium level in serum: 10.6 ± 0.4 mg/dL
